Measured values taken from PubChem BioAssay AID1794806 (Yongcheng Song lab at Baylor College of Medicine, 2022).
Activity calls are given as the source filed them.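 Rule for the calls: active = EC50 under 50 µM in a live-cell viability test; inactive = the rest.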

The compounds below were run on HeLa proliferation, XTT absorbance (assay: HeLa cell growth inhibition, dose response, selectivity assay for AHD inhibitor project, XTT absorbance (AID 1794806)).

EC50	Compound
25 µM	O=C(NCC1CCNCC1)c1cc2cc(-c3ccc(N4CCCCC4)cc3)ccc2s1
> 51 µM (inactive)	O=C(NCC1CCNCC1)c1c[nH]c2cc(-c3ccc(N4CCCC4)cc3)ccc12
50 µM	O=C(NCC1CCNCC1)c1cc2ccc(-c3ccc(N4CCCCC4)cc3)cc2s1
> 51 µM (inactive)	NCc1ccc(-c2ccc3cc(C(=O)NCC4CCNCC4)oc3c2)cc1
> 51 µM (inactive)	O=C(NCC1CCNCC1)c1cc2cc(-c3ccc(N4CCCCC4)cc3)ccc2[nH]1
> 51 µM (inactive)	O=C(NCC1CCNCC1)c1c[nH]c2cc(-c3ccc(N4CCCCC4)cc3)ccc12
> 51 µM (inactive)	NC(=O)c1ccc(-c2ccc3cc(C(=O)NCC4CCNCC4)sc3c2)cc1
> 51 µM (inactive)	O=C(NCC1CCNCC1)c1cc2cc(-c3cn[nH]c3)ccc2[nH]1
50 µM	O=C(NCC1CCNCC1)c1coc2cc(-c3ccc(N4CCCCC4)cc3)ccc12
50 µM	O=C(NCC1CCNCC1)c1cc2ccc(-c3ccc(N4CCCC4)cc3)cc2s1
